According to BindingDB's records for patent US20250163072 (Hoffmann-La Roche, 2025):

Each compound was assayed against GTPase KRas [G12C]/Serine/threonine-protein kinase B-raf (Human, UniProt P01116+P15056, G12C) (assay: KRAS G12C-BRAF NanoBit Assay).
Method: HEK293 cells were grown and maintained using DMEM medium (Thermo Fisher Scientific) with 10% fetal bovine serum and 1% penicillin/streptomycin. Both KRAS G12C and BRAF RBD were cloned into the NanoBit vectors ([…] vectors system, Promega) with the orientations SmBit-KRAS G12C and BRAF RBD-LgBit, respectively, and co-transfected into HEK293 cells. Cells were then selected with 100 μg/mL Hygromycin B (10687010, Thermo Fisher) and Blasticidin (5 μg/mL) for 4 weeks to get the stable cell pool. On the day of the assay, 75 nL of compound solution was presented in a 384-well assay plate as a 16-point 3-fold dilution starting from a final concentration of 30 μM in DMSO. Then cells were seeded at 10,000 cells/25 μL/well in a 384-well plate. After 3 hours of incubation, 6 μL of volume of Nano-Glo Live Cell Substrate (Promega) was added into each well. Monitor luminescence using ultra384 model in Envision at 20 minutes. Compounds that facilitate disruption of the KRAS G12C-BRAF RBD complex were identified as those eliciting a decrease of luminescence relative to DMSO control wells.

GTPase KRas [G12C]/Serine/threonine-protein kinase B-raf, sequence (P01116 whole entry G12C): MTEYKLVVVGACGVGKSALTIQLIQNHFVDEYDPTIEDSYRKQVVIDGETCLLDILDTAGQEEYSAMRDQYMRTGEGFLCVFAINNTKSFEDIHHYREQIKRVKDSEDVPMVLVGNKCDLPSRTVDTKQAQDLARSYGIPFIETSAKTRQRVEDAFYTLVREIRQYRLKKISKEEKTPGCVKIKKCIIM
GTPase KRas [G12C]/Serine/threonine-protein kinase B-raf, sequence (P15056 2-766 limits assumed): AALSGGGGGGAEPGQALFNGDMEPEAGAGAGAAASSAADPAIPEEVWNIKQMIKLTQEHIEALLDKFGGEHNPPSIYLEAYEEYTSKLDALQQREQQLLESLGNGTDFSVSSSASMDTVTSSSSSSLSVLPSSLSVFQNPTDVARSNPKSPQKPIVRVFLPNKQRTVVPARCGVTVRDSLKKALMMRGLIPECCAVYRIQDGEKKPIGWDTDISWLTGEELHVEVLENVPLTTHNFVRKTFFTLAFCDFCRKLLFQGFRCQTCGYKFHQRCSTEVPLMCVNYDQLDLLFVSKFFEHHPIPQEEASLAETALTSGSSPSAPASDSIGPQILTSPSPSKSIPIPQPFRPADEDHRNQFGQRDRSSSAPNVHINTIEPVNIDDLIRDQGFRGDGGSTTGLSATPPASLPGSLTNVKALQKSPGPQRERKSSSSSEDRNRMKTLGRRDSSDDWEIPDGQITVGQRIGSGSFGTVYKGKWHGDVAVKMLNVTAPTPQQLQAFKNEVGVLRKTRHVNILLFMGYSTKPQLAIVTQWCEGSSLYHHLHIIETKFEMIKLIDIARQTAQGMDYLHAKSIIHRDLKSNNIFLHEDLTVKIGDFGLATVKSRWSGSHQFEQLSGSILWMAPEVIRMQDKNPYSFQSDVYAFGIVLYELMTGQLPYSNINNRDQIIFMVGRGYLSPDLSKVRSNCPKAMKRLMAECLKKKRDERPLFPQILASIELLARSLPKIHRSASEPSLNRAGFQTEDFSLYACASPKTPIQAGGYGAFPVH

| SMILES | IC50 [nM] |
| --- | --- |
| CCn1c(-c2cccnc2[C@H](C)OC)c2c3cc(ccc31)-c1cc(O)cc(c1)C[C@H](NC(=O)[C@H](C(C)C)N(C)C(=O)C1CCN(C(=O)C#CCN3CCOCC3)C1)C(=O)N1CCC[C@H](N1)C(=O)OCC(C)(C)C2 (stereo partly drawn) [US20250163072, Example RM018] | 268 |
| CC(C)[C@@H](C(=O)N[C@H]1Cc2cc(O)cc(c2)-c2ccc3c(C(C)(C)C#N)cn(c3c2)CC(C)(C)COC(=O)[C@@H]2CCCN(N2)C1=O)N1CCCC2(CCN(C(=O)CCl)C2)C1=O (stereo partly drawn) [US20250163072, Example RM351] | 1780 |
| CCn1c(-c2cccnc2[C@H](C)OC)c2c3cc(ccc31)-c1cc(O)cc(c1)C[C@H](NC(=O)[C@H](C(C)C)N(C)C(=O)C1CN(C(=O)CCl)C1)C(=O)N1CCC[C@H](N1)C(=O)OCC(C)(C)C2 [US20250163072, Example RM461] | 440 |
